The subject of data set [1] is Mus musculus. As to the kind of experiment: Anticonvulsant activity in Mus musculus (mouse) assessed as protection against subcutaneous pentylene tetrazole-induced seizure at 300 mg/kg, ip after 4 hr. The arrangement: dose 300 mg/kg. In kind it is functional, organism-based.
Data set [2] relates to Mus musculus. As to the kind of experiment: Anticonvulsant activity in Mus musculus (mouse) assessed as protection against subcutaneous pentylene tetrazole-induced seizure at 300 mg/kg, ip after 0.5 hr. In kind it is functional, organism-based. Set-up: dose 300 mg/kg.
In data set [3] the test system is Mus musculus. As to the kind of experiment: Anticonvulsant activity in ip dosed Mus musculus (mouse) assessed as protection against maximal electroshock-induced seizure after 4 hr. The format is functional. The conditions noted are these: read-out: MED. For orientation: In the maximal electroshock model the usual endpoint is tonic extension of the hind limbs.
The subject of data set [4] is Mus musculus. As to the kind of experiment: Anticonvulsant activity in Mus musculus (mouse) assessed as protection against maximal electroshock-induced seizure at 300 mg/kg, ip after 0.5 hr. In kind it is functional, organism-based. Set-up: dose 300 mg/kg.
The subject of data set [5] is Mus musculus. As to the kind of experiment: Neurotoxicity in Mus musculus (mouse) assessed as minimal motor impairment at 300 mg/kg, ip after 4 hr by rotarod test. In kind it is toxicity, organism-based. The arrangement: dose 300 mg/kg, route intraperitoneal. The conditions noted are these: in vivo. In general terms: The rotarod test checks motor coordination on a turning rod.

Data set [6] deals with Mus musculus. As to the kind of experiment: Neurotoxicity in Mus musculus (mouse) assessed as minimal motor impairment at 300 mg/kg, ip after 0.5 hr by rotarod test. In kind it is toxicity, organism-based. Set-up: dose 300 mg/kg, route intraperitoneal. The conditions noted are these: in vivo.
The test system of data set [7] is Mus musculus. As to the kind of experiment: Anticonvulsant activity in ip dosed Mus musculus (mouse) assessed as protection against subcutaneous pentylene tetrazole-induced seizure after 0.5 hr. Conditions: read-out: MED. The format is functional.
The test system of data set [8] is Mus musculus. As to the kind of experiment: Anticonvulsant activity in ip dosed Mus musculus (mouse) assessed as protection against subcutaneous pentylene tetrazole-induced seizure after 4 hr. The format is functional. The conditions noted are these: read-out: MED.
Data set [9] concerns Mus musculus. As to the kind of experiment: Anticonvulsant activity in ip dosed Mus musculus (mouse) assessed as protection against maximal electroshock-induced seizure after 0.5 hr. The format is functional. Conditions: read-out: MED.
The subject of data set [10] is Mus musculus. As to the kind of experiment: Neurotoxicity in Mus musculus (mouse) assessed as increase in immobility time at 30 mg/kg, ip administered 30 min before test measured for 5 min by forced swimming test. The conditions noted are these: in vivo. Set-up: dose 30 mg/kg, route intraperitoneal. The format is toxicity, organism-based.
The test system of data set [11] is Mus musculus. As to the kind of experiment: Neurotoxicity in ip dosed Mus musculus (mouse) assessed as minimal motor impairment after 4 hr by rotarod test. The format is toxicity, organism-based. The conditions noted are these: in vivo.
Data set [12] concerns Mus musculus. As to the kind of experiment: Neurotoxicity in ip dosed Mus musculus (mouse) assessed as minimal motor impairment after 0.5 hr by rotarod test. The format is toxicity, organism-based. Conditions: in vivo.

The structures appear in SMILES notation. Calls of active or inactive are those of the source. The calls are words filed in the database; no cut-off is given here.

For `O=C(NN1C(=O)C(Cl)C1c1ccccc1O)c1ccncc1` (stereo not given), the outcome in the data set on Mus musculus [1], in the data set on Mus musculus [2] and in the data set on Mus musculus [4] was inactive. Further, the minimal effective dose in the data set with Mus musculus [3] stood at 300 mg/kg. Further, the Activity result in the data set with Mus musculus [5] and in the data set on Mus musculus [6] was “Non-toxic” each time.

For the molecule `NC(=O)N1c2ccccc2C=Cc2ccccc21` [CARBAMAZEPINE], the minimal effective dose with Mus musculus [7] was determined as 100 mg/kg; in the data set on Mus musculus [8], 300 mg/kg; in the data set with Mus musculus [3], 100 mg/kg; in the data set with Mus musculus [9] it was 30 mg/kg. The values for the Activity in the data set with Mus musculus [10] and in the data set on Mus musculus [6] were 30.66% and “Non-toxic”, respectively. For the same molecule, the MTC with Mus musculus [11] was 30 mg/kg.

Take `O=C(NN1C(=O)C(Cl)C1c1ccccc1[N+](=O)[O-])c1ccncc1` (stereo not given): the outcome in the data set on Mus musculus [2] and in the data set on Mus musculus [4] was inactive. The minimal effective dose in the data set with Mus musculus [8] and with Mus musculus [3] was 300 mg/kg throughout. Further, the Activity entry in the data set on Mus musculus [5] and in the data set with Mus musculus [6] was “Non-toxic” throughout.

For the molecule `O=C(NN1C(=O)C(Cl)C1c1ccc(Cl)cc1)c1ccncc1` (stereo not given), the minimal effective dose was determined as 100 mg/kg in the data set on Mus musculus [7], 100 mg/kg in the data set with Mus musculus [8], 100 mg/kg in the data set with Mus musculus [3] and 300 mg/kg in the data set with Mus musculus [9]. The Activity with Mus musculus [10] is 54.54%; with Mus musculus [5], “Non-toxic”; in the data set on Mus musculus [6] it was “Non-toxic”.

With `O=C1NC(=O)C(c2ccccc2)(c2ccccc2)N1` [PHENYTOIN], the result with Mus musculus [1] and in the data set with Mus musculus [2] was inactive. In addition, the minimal effective dose in the data set on Mus musculus [3] and in the data set with Mus musculus [9] was 30 mg/kg in each case. In addition, the MTC in the data set with Mus musculus [11] and in the data set on Mus musculus [12] was 100 mg/kg throughout.

For the molecule `Cc1ccc(C2C(Cl)C(=O)N2NC(=O)c2ccncc2)cc1` (stereo not given), the minimal effective dose stood at 100 mg/kg with Mus musculus [7], 30 mg/kg in the data set on Mus musculus [8], 30 mg/kg with Mus musculus [3] and 30 mg/kg with Mus musculus [9]. Moreover, the results for the Activity in the data set on Mus musculus [10], in the data set on Mus musculus [5] and in the data set on Mus musculus [6] were 21.66%, “Non-toxic” and “Non-toxic”, respectively.

On to `CN(C)c1ccc(C2C(Cl)C(=O)N2NC(=O)c2ccncc2)cc1` (stereo not given), for which, in the data set with Mus musculus [2], the outcome was inactive. Further, the minimal effective dose with Mus musculus [8], in the data set with Mus musculus [3] and in the data set with Mus musculus [9] was 100 mg/kg throughout. The Activity is recorded as 49.83% in the data set on Mus musculus [10], “Non-toxic” in the data set with Mus musculus [5] and “Non-toxic” in the data set with Mus musculus [6].

With `O=C(NN1C(=O)C(Cl)C1c1ccccc1Cl)c1ccncc1` (stereo not given), the outcome with Mus musculus [1], with Mus musculus [2] and with Mus musculus [4] was inactive. Besides, the minimal effective dose in the data set with Mus musculus [3] amounted to 300 mg/kg. Besides, the Activity result in the data set on Mus musculus [5] and in the data set on Mus musculus [6] was “Non-toxic” each time.

Turning to `O=C(NN1C(=O)C(Cl)C1c1ccc(O)cc1)c1ccncc1` (stereo not given), the result in the data set with Mus musculus [2] and with Mus musculus [4] was inactive. Further, the results for the minimal effective dose in the data set with Mus musculus [8] and with Mus musculus [3] were 300 mg/kg and 100 mg/kg, respectively. Besides, the Activity result in the data set on Mus musculus [6] is “Non-toxic”. Moreover, the MTC in the data set with Mus musculus [11] amounted to 300 mg/kg.

For the molecule `COc1ccc(C2C(Cl)C(=O)N2NC(=O)c2ccncc2)cc1OC` (stereo not given), the minimal effective dose in the data set on Mus musculus [7], in the data set on Mus musculus [8], with Mus musculus [3] and with Mus musculus [9] was 100 mg/kg each time. Moreover, the Activity in the data set on Mus musculus [10] was 33.83%; with Mus musculus [5] it was “Non-toxic”; with Mus musculus [6], “Non-toxic”.

As to `O=C(NN1C(=O)C(Cl)C1c1ccccc1)c1ccncc1` (stereo not given), the minimal effective dose with Mus musculus [7], with Mus musculus [8], in the data set with Mus musculus [3] and in the data set with Mus musculus [9] was 100 mg/kg in each case. Further, the Activity with Mus musculus [10] was 11.5%; in the data set with Mus musculus [5], “Non-toxic”; with Mus musculus [6], “Non-toxic”.

For `COc1cc(C2C(Cl)C(=O)N2NC(=O)c2ccncc2)ccc1O` (stereo not given), the result with Mus musculus [2] was inactive. Besides, the minimal effective dose with Mus musculus [8] amounted to 300 mg/kg; in the data set with Mus musculus [3], 100 mg/kg; in the data set with Mus musculus [9], 300 mg/kg. The Activity result with Mus musculus [5] and in the data set with Mus musculus [6] was “Non-toxic” each time.

For `O=C(NN1C(=O)C(Cl)C1c1ccc([N+](=O)[O-])cc1)c1ccncc1` (stereo not given), the minimal effective dose came out at 300 mg/kg with Mus musculus [7], 100 mg/kg in the data set on Mus musculus [8] and 100 mg/kg in the data set with Mus musculus [3]. Further, the outcome with Mus musculus [4] was inactive. Also, the Activity result in the data set with Mus musculus [6] is reported as “Non-toxic”. Further, in the data set with Mus musculus [11], the MTC is 300 mg/kg.

As to `COc1ccccc1C1C(Cl)C(=O)N1NC(=O)c1ccncc1` (stereo not given), the result in the data set on Mus musculus [1], in the data set on Mus musculus [2] and with Mus musculus [4] was inactive. Besides, in the data set on Mus musculus [3], the minimal effective dose was 300 mg/kg. For the same molecule, the Activity entry in the data set with Mus musculus [5] and in the data set with Mus musculus [6] was “Non-toxic” throughout.

The values are drawn from ChEMBL document CHEMBL3045607, “Design and synthesis of novel N-substituted-3-chloro-2-azetidinone derivatives as potential anticonvulsant agents” (Med Chem Res, 2011).
